In US20210403415A1, “COMPOUNDS AND METHODS TO ATTENUATE TUMOR PROGRESSION AND METASTASIS” (THE TRUSTEES OF INDIANA UNIVERSITY, priority 2018, published 2021):
“Also recorded” adds a separate entry of the source.

Legend:
TEAD4 Cys367Ser mutant [1] = target: T1, TEAD4 Cys367Ser mutant (Homo sapiens, UniProt Q15561, C367S); test: Fluorescence polarization, GST-TEAD4 Cys367Ser mutant with FAM-Yap60-99 peptide; format: binding; details: 24 h at 4° C.
T1 construct: TEAD4 (217-434) Cys367Ser mutant and Yap1 (Full-length) were expressed as GST-fusion proteins; made in house; host or cells: E. coli BL-21 (DE3), pGEX-6P-1
T1 sequence (Q15561 217-434 C367S): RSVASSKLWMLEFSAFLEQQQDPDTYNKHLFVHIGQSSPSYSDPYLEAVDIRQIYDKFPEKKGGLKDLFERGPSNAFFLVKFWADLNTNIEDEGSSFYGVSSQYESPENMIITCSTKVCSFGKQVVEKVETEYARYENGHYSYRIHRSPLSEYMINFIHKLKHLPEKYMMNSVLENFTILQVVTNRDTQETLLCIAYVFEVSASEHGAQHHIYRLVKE
Method: GST-TEAD4, GST-TEAD4 Cys367Ser mutant or HIS-TEAD2 interaction with Yap1 was investigated using a fluorescently-labeled peptide (FAM-Yap60-99), consisting of FAM-labeled TEAD-binding peptide fragment of Yap1 (FAM-[…] TVPMCLRKLPASFCKPP), which has a disulfide bridge (American Peptide, Sunnyvale, Calif.). Addition of FAM-Yap60-99 to the TEAD was followed by measurement of changes in polarization. 40 μL of 125 nM GST-TEAD4 WT or GST-TEAD4 Cys367Ser in assay buffer (PBS with 0.01% v/v Triton-X100) or 40 μL of 64 nM HIS-TEAD2 was added to a 384-well black polystyrene plate (Cat. No. 262260; Nunc, Roskilde, Denmark) and incubated with 5 μL of […] serially diluted compounds in assay buffer supplemented with 20% v/v DMSO for 24 h at 4° C. Finally, 5 μL of 160 nM FAM-Yap60-99 peptide was added, the plate centrifuged, and the polarization was measured on an Envision Multilabel Plate Reader (PerkinElmer, Waltham, Mass.) using a filter set with excitation and emission wavelengths of 485 and 535 nm, respectively. Percent inhibition was calculated as relative to a minimum inhibition control, which is without compound, and a maximum inhibition control, which is without a TEAD.

TEAD4 Cys367Ser mutant [2] = target: T1, TEAD4 Cys367Ser mutant; test: Whole protein ESI mass spectrometry, adduct formation with mutant; format: binding; details: 10 μM mutant, 200 μM compound, 24 h at 4° C.
Method: (§1) The samples were centrifuged at 20,000×g for […] to remove precipitants before being injected into an empty column on an Agilent 1200 liquid chromatography system (Agilent, Santa Clara, Calif.), using 80% Buffer A (H2O, 5 mM NH4OAc) and 20% Buffer B (ACN, 5 mM NH4OAc), and the masses were detected on an Agilent 6520 Accurate Mass Q-TOF.
FIG. 4A illustrates analysis by ESI mass spectrometry after 10 μM TEAD4 Cys367Ser mutant was incubated with 200 μM compound for 24 h at 4° C. FIG. 4B illustrates measurement of fluorescence polarization due to binding when increasing concentration of TEAD4 Cys367Ser mutant was mixed with 16 nM FAM-Yap60-99 peptide (mean±s.d.; n=3). FIG. 4C illustrates measurement of fluorescence polarization due to binding when TEAD4 Cys367Ser mutant was incubated with increasing concentration of compounds for 24 h at 4° C. followed by addition of FAM-Yap60-99 (mean±s.d.; n=3).

[3] = tested on: TEAD4 transcriptional activity; test: TEAD4 luciferase reporter assay (CTGF promoter) in HEK-293 cells; format: cell-based
Method: HEK-293 cells plated at 2.4×10^4 cells/well in a 96-well microplate were transfected after 24 hours with the a pGL3.1 reporter containing the CTGF promoter and a plasmid encoding TK-Renilla luciferase in combination with control vectors or vectors that express Yap1 and TEAD4. […] Luciferase activity was measured according to the Dual-Glo luciferase assay (Promega) instructions using a Biotek Synergy Neo2 plate reader. Relative luciferase activity represents the ratio of firefly/renilla luminescence values.

CTGF transcript levels = test: qRT-PCR of CTGF transcript in HEK293 cells; format: cell-based; details: HEK293, 48 h
Method: HEK293 cells co-transfected the Flag-YAP and myc-TEAD4 constructs were incubated with DMSO or the indicated amount of compounds for 48 h. Total RNA was purified using the RNeasy plus mini kit (QIAGEN, Hilden, Germany) according to the manufacturer's instructions. Complementary DNA was synthesized from 500 ng total RNA with Oligo-dT primers and the Multi-Scribe reverse transcriptase (Fisher, Waltham, Mass.) according to the manufacturer's instructions.
Real-time PCR reactions utilized 100 ng cDNA, 200 nM gene specific primers and the Sensifast No-ROX mix (Bioline, Taunton, Mass.) in a total volume of 20 μl. All measurements were carried out in triplicate using an Eppendorf Mastercycler® RealPlex2. The sequences of primers for CTGF were forward, 5′-TTGGCCCAGACCCAACTA-3 (SEQ ID NO: 1); and reverse, 5′-GCAGGAGGCGTTGTCATT-3′ (SEQ ID. NO: 2). The primer sequences for (3-actin were forward, 5′-TTGGCAATGAGCGGTTCC-3 (SEQ ID NO: 3); and reverse, 5′-[…]-3′ (SEQ ID NO: 4).

TEAD4 = TEAD4 (Homo sapiens, UniProt Q15561); test: Whole protein ESI mass spectrometry, adduct formation; format: binding; parameters: TEAD4 (217-434), TEAD4 (217-434) Cys367Ser mutant and Yap1 (Full-length) were expressed as GST-fusion proteins; GST (N, cleaved yes); made in house; host or cells: E. coli BL-21 (DE3), pGEX-6P-1; details: for covalent adduct formation with TEAD4: 10 μM TEAD4, 200 μM compound, 24 h at 4° C.
TEAD4, sequence (Q15561 217-434): as the sequence (Q15561 217-434 C367S) above, with S151C counted along it
Method: as §1
It was determined whether a covalent bond formed between inventive compounds and TEAD4. […] The covalent adduct formation by compound 2 was relatively fast (FIG. 3G), reaching nearly 100% adduct formation after 30 min incubation with TEAD4. Because the rate of inhibition developed over a longer timescale (FIG. 3C), compound 2 is proposed to induce a slow conformational change in TEAD4 that prevents its interaction with Yap1. To rule out the possibility that compound 2 induces slow aggregation of TEAD4, and not the proposed slow conformational change, GST-TEAD4 was incubated with DMSO compound 2 for 24 h at 4° C., followed by injection into an SEC column (FIG. 3H). […] A slight increase in dimer formation for the TEAD4 sample incubated with compound 2 occurred compared to the sample incubated with DMSO. […] Furthermore, it is highly unlikely that Cys-367 oxidation was responsible for the lack of 100% inhibition at longer times since it has been shown that covalent bond formation is rapid and complete within less than an hour.

| adduct formation with TEAD4 Cys367Ser mutant (TEAD4 Cys367Ser mutant [2]) | adduct formation with TEAD4 (TEAD4; after 30 min incubation) | SMILES | inhibition of TEAD4 Cys367Ser mutant binding to the peptide (TEAD4 Cys367Ser mutant [1]) | reduction in reporter activity ([3]; 5 μM, 48 h) | reporter activity ([3]; 10 μM, 48 h) | TEAD transcriptional activity ([3]; 24 h) | CTGF transcript levels versus control cells (CTGF transcript levels) | covalent adduct formation with TEAD4 (TEAD4) |
| --- | --- | --- | --- | --- | --- | --- | --- | --- |
| failed to form an adduct | ~100% | O=C(CCl)c1ccccc1Nc1cccc(C(F)(F)F)c1 [Compound 2, 2-chloro-1-(2-((3-(trifluoromethyl)phenyl)amino)phenyl)ethanone] | did not inhibit | over 70% | complete loss of reporter activity | Less activity is observed at 24 h; also recorded: inhibits TEAD transcriptional activity in a concentration-dependent manner | significant reduction | a peak at 26229 was observed, corresponding to the TEAD4.compound 2 adduct |
| formed an adduct | – | O=C(CCl)c1ncccc1Nc1cccc(C(F)(F)F)c1 [Compound 5, 2-chloro-1-(3-((3-(trifluoromethyl)phenyl)amino)pyridin-2-yl)ethanone] | also inhibited the TEAD4 Cys367Ser mutant | – | – | – | significant reduction | formed more than one covalent complex |
